Data set [1] is described as follows: Competitive stability study (slurry of Forms I-VI, XRPD). In kind it is physicochemical. The settings on record: 2 days, room temperature. How it is done:
To evaluate the transformation of Compound 1 phosphate solid forms, competitive slurry experiments were performed as follows: to a saturated solution (1.5 mL) of Compound 1 phosphate Form I in the solvent as listed in Table 14 was added Form I (6 mg), followed by stirring to give a cloudy solution, then 6 mg each of Form II through Form VI were added to the mixture. The slurry was stirred for 2 days at room temperature and analyzed by XRPD.

The subject of data set [2] is pBAD in KMS12BM cells. The data set can be described thus: Pim pBAD signaling assay in KMS12BM cells. In kind it is cell-based. The following applies: Homo sapiens, KMS-12-BM, 2.5 hours, read-out: IC50 pBAD KMS12BM cells (Ex. B).
Another data set has as its target T1, Pim-1 (Homo sapiens, UniProt P11309).
T1 construct: purchased Invitrogen PV3503
The data set can be described thus: Pim-1 kinase assay. In kind it is biochemical. The settings on record: 1 mM ATP; read-out: IC50 PIM1 Enzyme (Ex. A). The procedure: Pim-1 and Pim-3 kinase assays—20 μL reactions can be run in white 384 well polystyrene plates dotted with 0.8 μL compound/DMSO in the assay buffer (50 mM Tris, pH 7.5, 0.01% Tween-20, 5 mM MgCl2, 0.01% BSA, 5 mM DTT), containing 0.05 μM Biotin-labeled BAD peptide substrate (AnaSpec 62269), 1 mM ATP, and 2.5 pM (Pim-1, Invitrogen PV3503) or 1.25 pM (Pim-3, Millipore 14-738) enzyme for 1 h at 25° C. Reactions are stopped by addition of 10 μL STOP Buffer (150 mM Tris, pH=7.5, 150 mM NaCl, 75 mM EDTA, 0.01% Tween-20, 0.3% BSA) supplemented with Phospho-Bad (Ser112) Antibody (Cell Signaling 9291) diluted 666-fold, and Streptavidin donor beads (PerkinElmer 6760002) along with Protein-A acceptor beads (PerkinElmer 6760137) at 15 μg/mL each. Supplementation of the STOP buffer with beads and stopping the reactions are done under reduced light. Prior to the stopping reactions STOP buffer with beads is pre-incubated for 1 h in the dark at room temperature. After stopping the reactions, plates are incubated for 1 h in the dark at room temperature before reading on a PHERAstar FS plate reader (BMG Labtech) under reduced light.

The target in another data set is T2, Pim-2 (Homo sapiens, UniProt Q9P1W9).
T2 construct: purchased Invitrogen PV3649
T2 sequence (Q9P1W9 whole entry): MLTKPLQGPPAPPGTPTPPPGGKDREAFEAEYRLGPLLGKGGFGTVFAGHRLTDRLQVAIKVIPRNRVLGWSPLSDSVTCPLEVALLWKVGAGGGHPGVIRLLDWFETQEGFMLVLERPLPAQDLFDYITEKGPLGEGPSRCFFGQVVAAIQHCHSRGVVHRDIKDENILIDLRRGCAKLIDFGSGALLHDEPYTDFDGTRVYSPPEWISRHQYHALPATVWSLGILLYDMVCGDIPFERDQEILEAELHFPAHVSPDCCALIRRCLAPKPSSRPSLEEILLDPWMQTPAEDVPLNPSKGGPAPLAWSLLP
In words: Pim-2 kinase assay. In kind it is biochemical. The following applies: 1 mM ATP; read-out: IC50 PIM2 Enzyme (Ex. A). The procedure: Pim-2 kinase assay—20 μL reactions are run in white 384 well polystyrene plates dotted with 0.8 μL compound/DMSO in the assay buffer (50 mM Tris, pH 7.5, 0.01% Tween-20, 5 mM MgCl2, 0.01% BSA, 5 mM DTT), containing 0.05 μM Fluorescein-labeled CREBtide peptide substrate (Invitrogen PV3508), 1 mM ATP, and 1 nM enzyme (Invitrogen PV3649) for 2 h at 25° C. Reactions are stopped by addition of 10 μL TR-FRET Dilution Buffer (Invitrogen PV3574) with 30 mM EDTA and 1.5 nM LanthaScreen Tb-CREB pSer133 antibody (Invitrogen PV3566). After 30 min. incubation at room temperature, plates are read on a PHERAstar FS plate reader (BMG Labtech).

The next data set addresses Pim-3 (Homo sapiens, UniProt Q86V86). In words: Pim-3 kinase assay. In kind it is biochemical. The following applies: 1 mM ATP; read-out: IC50 PIM3 Enzyme (Ex. A).
Data set [3] concerns pBAD in KMS12BM cells. The data set can be described thus: pBAD signaling assay in human whole blood, KMS12BM cells. In kind it is cell-based. The following applies: KMS-12-BM, read-out: IC50 pBAD whole blood (Ex. B, KMS12BM cells).
The next data set deals with KMS12BM cells. The data set can be described thus: Pim cell proliferation assay ([3H]-thymidine), KMS12BM. Format: cell-based. The settings on record: Homo sapiens, KMS-12-BM; read-out: IC50 Tumor cell proliferation (Ex. B, KMS12BM cells). The procedure:
(§1) KM[…] and MOLM16 cells were purchased from DSMZ (Germany) and were maintained according to the recommendations of suppliers. To measure the anti-proliferation activities of test compounds, the cells were plated in their respective culture medium (2×10^3 cells/200 μL/well) into 96-well ultralow binding plates (Corning), with or without test compound(s). After 3 to 4 days, [3H]-thymidine (1 μCi/well) (PerkinElmer) in PBS (10 μL) was then added to the cell culture for an additional 12 hours before the incorporated radioactivity was separated by filtration with water through GF/B filters (Packard Bioscience) and measured by liquid scintillation counting with a TopCount (Packard Bioscience).

In a further data set the test system is pBAD in MOLM-16 cell. The data set can be described thus: pBAD signaling assay in human whole blood, MOLM16 cells. In kind it is cell-based. The following applies: read-out: IC50 pBAD whole blood (Ex. B, MOLM16 cells).
For the next data set, the system named is MOLM16 cells. The data set can be described thus: Pim cell proliferation assay ([3H]-thymidine), MOLM16. Format: cell-based. The settings on record: read-out: IC50 Tumor cell proliferation (Ex. B, MOLM16 cells). How it is done:
as §1

Data set [4] is described as follows: Stability study of Form I under environmental conditions (XRPD). Format: physicochemical. An excerpt:
Compound 1 phosphoric acid salt Form I was subjected to various different environmental conditions to assess stability.

Data set [5] is described as follows: Stability study under phase equilibration conditions (XRPD). In kind it is physicochemical. The following applies: 2-3 days, all solvents and solvent mixtures tested. How it is done:
Phase equilibration studies were designed to provide information on a predominant crystal form for phase identification. Compound 1 phosphoric acid salt (Form I) was equilibrated in a representative group of solvents at 25±1° C. (chloroform, DMF, 1,4-dioxane, methanol and methanol/20% water, 2-methoxyethanol and 2-methoxyethanol/20% water, MIBK, THF and THF/20% water, acetone, n-BuOH and n-BuOH/20% water, EtOH and EtOH/20% water, isobutyl acetate, 1-propanol and 1-propanol/20% water, isopropanol, water, and MEK) and 50±1° C. (chloroform, DMF, 1,4-dioxane, methanol and methanol/20% water, 2-methoxyethanol and 2-methoxyethanol/20% water, MIBK, THF and THF/20% water, acetone, n-BuOH and n-BuOH/20% water, EtOH and EtOH/20% water, EtOAc, ethyl formate, 1-propanol and 1-propanol/20% water, isopropanol, IPA/MeOH/Water (1.73/0.79/0.08), IPA/water (3/2), water) controlled by IKA® ETS-D5 temperature controller and IKA® RCT basic safety control.
To 3 mL of a solvent or a mixture of solvents (chosen from a list for the respective temperature) was added Compound 1 phosphate (Form I) until a cloudy solution was obtained, then, about 30 mg of Compound 1 phosphate (Form I) was added to the cloudy solution. The mixture was stirred at 25±1° C. or 50±1° C., respectively, for 2-3 days. The solid was filtered and analyzed by XRPD. […]

A further data set addresses PIM kinase. The data set can be described thus: Pim enzyme assays (isoform not given). Format: biochemical. The following applies: 1 mM ATP; Pim isoform not stated.

Where a name gives a salt, the structure may show the parent alone.

T1 sequence (P11309 whole entry): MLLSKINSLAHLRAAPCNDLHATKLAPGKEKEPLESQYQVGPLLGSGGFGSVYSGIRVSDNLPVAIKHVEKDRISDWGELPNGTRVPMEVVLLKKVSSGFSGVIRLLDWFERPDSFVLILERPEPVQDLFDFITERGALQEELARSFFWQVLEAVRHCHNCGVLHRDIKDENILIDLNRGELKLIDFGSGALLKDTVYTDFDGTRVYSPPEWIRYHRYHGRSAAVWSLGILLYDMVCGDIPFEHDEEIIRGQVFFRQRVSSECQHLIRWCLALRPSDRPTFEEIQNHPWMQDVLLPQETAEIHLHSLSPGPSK
Protocol for PIM kinase: Pim-1 and Pim-3 kinase assays—20 μL reactions can be run in white 384 well polystyrene plates dotted with 0.8 μL compound/DMSO in the assay buffer (50 mM Tris, pH 7.5, 0.01% Tween-20, 5 mM MgCl2, 0.01% BSA, 5 mM DTT), containing 0.05 μM Biotin-labeled BAD peptide substrate (AnaSpec 62269), 1 mM ATP, and 2.5 pM (Pim-1, Invitrogen PV3503) or 1.25 pM (Pim-3, Millipore 14-738) enzyme for 1 h at 25° C. Reactions are stopped by addition of 10 μL STOP Buffer (150 mM Tris, pH=7.5, 150 mM NaCl, 75 mM EDTA, 0.01% Tween-20, 0.3% BSA) supplemented with Phospho-Bad (Ser112) Antibody (Cell Signaling 9291) diluted 666-fold, and Streptavidin donor beads (PerkinElmer 6760002) along with Protein-A acceptor beads (PerkinElmer 6760137) at 15 μg/mL each. […] After stopping the reactions, plates are incubated for 1 h in the dark at room temperature before reading on a PHERAstar FS plate reader (BMG Labtech) under reduced light.
Pim-2 kinase assay—20 μL reactions are run in white 384 well polystyrene plates dotted with 0.8 μL compound/DMSO in the assay buffer (50 mM Tris, pH 7.5, 0.01% Tween-20, 5 mM MgCl2, 0.01% BSA, 5 mM DTT), containing 0.05 μM Fluorescein-labeled CREBtide peptide substrate (Invitrogen PV3508), 1 mM ATP, and 1 nM enzyme (Invitrogen PV3649) for 2 h at 25° C. […] After 30 min. incubation at room temperature, plates are read on a PHERAstar FS plate reader (BMG Labtech).

As for `C[C@H]1CN(c2c(NC(=O)c3ccc(F)c(-c4c(F)cccc4F)n3)cnc3c2CC[C@H]3O)C[C@@H](N)[C@@H]1O` [Compound 1 H3PO4 salt, N-{(7R)-4-[(3R,4R,5S)-3-amino-4-hydroxy-5-methylpiperidin-1-yl]-7-hydroxy-6,7-dihydro-5H-cyclopenta[b]pyridin-3-yl}-6-(2,6-difluorophenyl)-5-fluoropyridine-2-carboxamide phosphoric acid salt], the Solid state form result in data set [1] (IPA/MeOH/water/DMSO (56.6/28.3/3.0/12.1)) and in data set [1] (IPA/MeOH/water/DMSO (61.8/28.2/2.9/7.1)) was “Form I” throughout.

For `C[C@H]1CN(c2c(NC(=O)c3ccc(F)c(-c4c(F)cccc4F)n3)cnc3c2CC[C@H]3O)C[C@@H](N)[C@@H]1O` [Compound 1 di-HCl salt, N-{(7R)-4-[(3R,4R,5S)-3-amino-4-hydroxy-5-methylpiperidin-1-yl]-7-hydroxy-6,7-dihydro-5H-cyclopenta[b]pyridin-3-yl}-6-(2,6-difluorophenyl)-5-fluoropyridine-2-carboxamide dihydrochloride], the IC50 in the data set with pBAD in KMS12BM cells [2] was < 35 nM; on Pim-1 it was < 35 nM; at Pim-2, < 35 nM; on Pim-3, < 35 nM; in the data set with pBAD in KMS12BM cells [3], < 200 nM; in the data set on KMS12BM cells it was < 100 nM. Further, the IC50 in the data set on pBAD in MOLM-16 cell is < 100 nM; in the data set on MOLM16 cells, < 35 nM.

Turning to `C[C@H]1CN(c2c(NC(=O)c3ccc(F)c(-c4c(F)cccc4F)n3)cnc3c2CC[C@H]3O)C[C@@H](N)[C@@H]1O` [Compound 1 phosphoric acid salt Form I, N-{(7R)-4-[(3R,4R,5S)-3-amino-4-hydroxy-5-methylpiperidin-1-yl]-7-hydroxy-6,7-dihydro-5H-cyclopenta[b]pyridin-3-yl}-6-(2,6-difluorophenyl)-5-fluoropyridine-2-carboxamide phosphoric acid salt], the “Crystalline Form (XRPD)” value in data set [4] (40° C./75% RH for 1 week) was “Form I”; in data set [4] (50° C. vacuum dry for 1 day), “Form I”; in data set [4] (100° C. vacuum dry for 1 day) it was “Form I”; in data set [4] (210° C. vacuum dry followed by 40° C./75% RH for 4 weeks), “Form I”; in data set [4] (210° C. vacuum dry for 20 min), “Not Form I”; in [4] (Suspension in 0.5% methyl cellulose in water), “Form I”. Besides, the “Solid form after phase equilibration (XRPD)” value in [5] (25±1° C.) and in data set [5] (50±1° C.) was “Form I” in each case.

With `C[C@H]1CN(c2c(NC(=O)c3ccc(F)c(-c4c(F)cccc4F)n3)cnc3c2CC[C@H]3O)C[C@@H](N)[C@@H]1O` [Compound 1, N-{(7R)-4-[(3R,4R,5S)-3-amino-4-hydroxy-5-methylpiperidin-1-yl]-7-hydroxy-6,7-dihydro-5H-cyclopenta[b]pyridin-3-yl}-6-(2,6-difluorophenyl)-5-fluoropyridine-2-carboxamide], at PIM kinase, the IC50 was < 100 nM.

Values taken from patent US12043614B2, “Salts of a Pim kinase inhibitor” (Incyte Corporation, priority 2015, dated 2024).
